Measurements from PMC11748363, “Antimicrobial and Antiproliferative Properties of 2‐Phenyl‐N‐(Pyridin‐2‐yl)acetamides” (Chemical Biology & Drug Design, 2025).
Values after ≈ are worked out from the molar mass of the structure shown. Read-outs that look alike come from different tables or passages of the source.

What was measured:
[1] = test system: Mycobacterium tuberculosis H37Ra; set-up: method as in Nawrot et al. 2021; conditions: previously published N‐pyridinyl benzamides; ref Nawrot et al. 2021; cited from earlier work
[2] = test system: Mycobacterium tuberculosis H37Ra; experiment: Antimycobacterial microdilution broth MIC (resazurin), Mtb H37Ra; assay type: cell-based; conditions: for MIC: Mycobacterium tuberculosis, H37RA, read-out: MIC Mtb H37Ra; for SI (selectivity index): SI = HepG2 IC50 (μM)/MIC MtbH37Ra (μM), calculated for compounds with MIC ≤ 31.25 μg/mL
[3] = test system: Mycolicibacterium smegmatis DSM 43465; experiment: Antimycobacterial microdilution broth MIC (resazurin), M. smegmatis; assay type: cell-based; conditions: DSM43465, read-out: MIC M. smegmatis
[4] = test system: Mycolicibacterium aurum DSM 43999; experiment: Antimycobacterial microdilution broth MIC (resazurin), M. aurum; assay type: cell-based; conditions: DSM43999, read-out: MIC M. aurum
[5] = test system: Mycobacterium tuberculosis H37Rv; experiment: Microplate Alamar Blue Assay MIC, Mtb H37Rv; assay type: cell-based; conditions: for MIC: Mycobacterium tuberculosis, H37RV
[6] = test system: M. kansasii CNCTC My 235/80; experiment: Microplate Alamar Blue Assay MIC, M. kansasii; assay type: cell-based; conditions: for MIC: Mycobacterium kansasii
[7] = test system: M. avium ssp. avium CNCTC My 80/72; experiment: Microplate Alamar Blue Assay MIC, M. avium; assay type: cell-based; conditions: for MIC: Mycobacterium avium
HepG2 cell line = experiment: Cytotoxicity CellTiter 96, HepG2; assay type: cell-based, human; conditions: Homo sapiens, HepG2, 24 h, 24 h incubation; ^c compound precipitated in the testing medium; ^d over the limit of tested concentrations
Method: The cytotoxicity of final compounds was determined in human hepatocellular carcinoma cell line HepG2.
Cytotoxicity determination
Human hepatocellular liver carcinoma cell line HepG2 purchased from Health Protection Agency Culture Collections (ECACC, Salisbury, UK) was cultured in MEM (Minimum Essentials Eagle Medium, Sigma–Aldrich) supplemented with 10% fetal bovine serum (PAA Laboratories, Pasching, Austria), 1% L-glutamine solution (Sigma–Aldrich) and non-essential amino acid solution (Sigma–Aldrich) in a humidified atmosphere containing 5% CO2 at 37 °C. For subculturing, the cells were harvested after trypsin/EDTA (Sigma–Aldrich) treatment at 37 °C. To evaluate cytotoxicity, the cells treated with the tested substances were used as experimental groups whereas untreated HepG2 cells served as controls. The cells were seeded in density 10,000 cells per well in a 96 well plate. The next day the cells were treated with each of the tested substances dissolved in DMSO. The tested substances were
in triplicates according to their solubility. Simultaneously, the controls representing 100% cell viability, 0% cell viability (the cells treated with 10% DMSO), no cell control and vehiculum controls were also
the reagent from the kit CellTiter 96 AQueous One Solution Cell Proliferation Assay (CellTiter 96; PROMEGA, Fitchburg, USA) was added. After 2h incubation at 37 °C, absorbance of samples was recorded at 490 nm (TECAN, Infinita M200, Austria). A standard toxicological parameter IC50 was calculated by nonlinear regression from a semilogarithmic plot of incubation concentration versus percentage of absorbance relative to untre ated controls using GraphPad Prism 8 software.

[8] = test system: Staphylococcus aureus CCM 4223, ATCC 29213; experiment: Antibacterial microdilution broth MIC, SA; assay type: cell-based; conditions: for MIC: Staphylococcus aureus
[9] = test system: Staphylococcus aureus subsp. aureus CCM 4750, ATCC 43300 (MRSA); experiment: Antibacterial microdilution broth MIC, MRSA; assay type: cell-based; conditions: for MIC: Staphylococcus aureus
[10] = test system: Staphylococcus epidermidis CCM 4418, ATCC 12228; experiment: Antibacterial microdilution broth MIC, SE; assay type: cell-based
[11] = test system: Enterococcus faecalis CCM 4224, ATCC 29212; experiment: Antibacterial microdilution broth MIC, EF; assay type: cell-based
[12] = test system: Escherichia coli CCM 3954, ATCC 25922; experiment: Antibacterial microdilution broth MIC, EC; assay type: cell-based
[13] = test system: Acinetobacter baumannii DSM 30007, ATCC 19606; experiment: Antibacterial microdilution broth MIC, ACI; assay type: cell-based
[14] = test system: Pseudomonas aeruginosa CCM 3955, ATCC 27853; experiment: Antibacterial microdilution broth MIC, PA; assay type: cell-based
panel of bacteria = experiment: Antibacterial screening, whole panel; assay type: cell-based; conditions: whole bacterial panel
panel of fungi = experiment: Antifungal screening, whole panel; assay type: cell-based; conditions: whole fungal panel
Method: The antifungal activity was evaluated by
spectrophotometric visual detection** spectrophotometric detection**
Candida tropicalis 1 1 2 >16
Aspergillus fumigatus 4 4 0.25 1
Aspergillus flavus CCM 4 4 2 >16
interdigitale CCM 1 1 1 >16
control. […] Measured on a […]

[15] = test system: Candida albicans CCM 8320, ATCC 24433; experiment: Antifungal microdilution broth MIC, CA
[16] = test system: Candida krusei CCM 8271, ATCC 6258; experiment: Antifungal microdilution broth MIC, CK; conditions: Pichia kudriavzevii
[17] = test system: Candida parapsilosis CCM 8260, ATCC 22019; experiment: Antifungal microdilution broth MIC, CP; conditions: Lodderomyces parapsilosis
[18] = test system: Candida tropicalis CCM 8264, ATCC 750; experiment: Antifungal microdilution broth MIC, CT
[19] = test system: Aspergillus fumigatus ATCC 204305; experiment: Antifungal microdilution broth MIC, AF
[20] = test system: Lichtheimia corymbifera CCM 8077; experiment: Antifungal microdilution broth MIC, LC
[21] = test system: Trichophyton interdigitale CCM 8377, ATCC 9533; experiment: Antifungal microdilution broth MIC, TI; conditions: for MIC: Trichophyton interdigitale
[22] = test system: Aspergillus flavus CCM 8363; experiment: Antifungal microdilution broth MIC, AFla
[23] = test system: Klebsiella pneumoniae CCM 4415, ATCC 10031; experiment: Antibacterial microdilution broth MIC, KP
[24] = ATCC204305, 24 h, read-out: MIC AF 24h
[25] = ATCC204305, 48 h, read-out: MIC AF 48h
[26] = CCM8077, 24 h, read-out: MIC LC 24h
[27] = CCM8077, 48 h, read-out: MIC LC 48h
[28] = CCM8363, 24 h, read-out: MIC AFla 24h
[29] = CCM8363, 48 h, read-out: MIC AFla 48h

O=C(Nc1cccc(Cl)n1)c1ccc(Cl)cc1 [C00003 R1=6-Cl,R2=4-Cl]
MIC Mtb H37Ra (μg/mL), previously published compounds [1]: > 500 µg/mL

COc1ccc(C(=O)Nc2cccc(Cl)n2)cc1 [C00003 R1=6-Cl,R2=4-OMe]
MIC Mtb H37Ra (μg/mL), previously published compounds [1]: 15.625 µg/mL (≈ 59.5 µM)

O=C(Nc1cccc(Cl)n1)c1ccccc1 [C00003 R1=6-Cl,R2=H]
MIC Mtb H37Ra (μg/mL), previously published compounds [1]: 125 µg/mL (≈ 537 µM)

O=C(Nc1ccccn1)c1ccccc1Cl [C00003 R1=H,R2=2-Cl]
MIC Mtb H37Ra (μg/mL), previously published compounds [1]: > 500 µg/mL

COc1ccccc1C(=O)Nc1ccccn1 [C00003 R1=H,R2=2-OMe]
MIC Mtb H37Ra (μg/mL), previously published compounds [1]: 31.25 µg/mL (≈ 137 µM)

O=C(Nc1ccccn1)c1cccc(C(F)(F)F)c1 [C00003 R1=H,R2=3-CF3]
MIC Mtb H37Ra (μg/mL), previously published compounds [1]: 31.25 µg/mL (≈ 117 µM)

O=C(Nc1ccccn1)c1cccc(Cl)c1 [C00003 R1=H,R2=3-Cl]
MIC Mtb H37Ra (μg/mL), previously published compounds [1]: 62.5 µg/mL (≈ 269 µM)

COc1cccc(C(=O)Nc2ccccn2)c1 [C00003 R1=H,R2=3-OMe]
MIC Mtb H37Ra (μg/mL), previously published compounds [1]: 62.5 µg/mL (≈ 274 µM)

O=C(Nc1ccccn1)c1ccc(Cl)cc1 [C00003 R1=H,R2=4-Cl]
MIC Mtb H37Ra (μg/mL), previously published compounds [1]: 62.5 µg/mL (≈ 269 µM)

COc1ccc(C(=O)Nc2ccccn2)cc1 [C00003 R1=H,R2=4-OMe]
MIC Mtb H37Ra (μg/mL), previously published compounds [1]: 62.5 µg/mL (≈ 274 µM)

O=C(Nc1ccccn1)c1ccccc1 [C00003 R1=H,R2=H]
MIC Mtb H37Ra (μg/mL), previously published compounds [1]: 250 µg/mL (≈ 1260 µM)

O=C(Cc1ccc(Cl)cc1)Nc1ccc(Cl)cn1 [Compound 20]
MIC ([2]; Calculated from MIC (μg/mL)): 27.8 µM
MIC [2]: 7.81 µg/mL
SI (selectivity index) [2]: 1.7
MIC [3]: 500 µg/mL (≈ 1780 µM)
MIC [4]: 500 µg/mL (≈ 1780 µM)
MIC [5]: 6.25 µg/mL (≈ 22.2 µM)
MIC [6]: > 100 µg/mL
MIC [7]: > 100 µg/mL
IC50 (HepG2 cell line): 48.5 µM
MIC ([8]; 24 h, read-out: MIC SA 24h): > 500 µM
MIC ([8]; 48 h, read-out: MIC SA 48h): > 500 µM
MIC ([9]; 24 h, read-out: MIC MRSA 24h): > 500 µM
MIC ([9]; 48 h, read-out: MIC MRSA 48h): > 500 µM
MIC ([10]; 24 h, read-out: MIC SE 24h): > 500 µM
MIC ([10]; 48 h, read-out: MIC SE 48h): > 500 µM
MIC ([11]; 24 h, read-out: MIC EF 24h): > 500 µM
MIC ([11]; 48 h, read-out: MIC EF 48h): > 500 µM
MIC ([12]; 24 h, read-out: MIC EC 24h): > 500 µM
MIC ([12]; 48 h, read-out: MIC EC 48h): > 500 µM
MIC ([13]; 24 h, read-out: MIC ACI 24h): > 500 µM
MIC ([13]; 48 h, read-out: MIC ACI 48h): > 500 µM
MIC ([14]; 24 h, read-out: MIC PA 24h): > 500 µM
MIC ([14]; 48 h, read-out: MIC PA 48h): > 500 µM
Antibacterial activity (panel of bacteria): None
Antifungal activity (panel of fungi): None
MIC ([15]; 24 h, read-out: MIC CA 24h): > 500 µM
MIC ([15]; 48 h, read-out: MIC CA 48h): > 500 µM
MIC ([16]; 24 h, read-out: MIC CK 24h): > 500 µM
MIC ([16]; 48 h, read-out: MIC CK 48h): > 500 µM
MIC ([17]; 24 h, read-out: MIC CP 24h): > 500 µM
MIC ([17]; 48 h, read-out: MIC CP 48h): > 500 µM
MIC ([18]; 24 h, read-out: MIC CT 24h): > 500 µM
MIC ([18]; 48 h, read-out: MIC CT 48h): > 500 µM
MIC [19, 24]: > 500 µM
MIC [19, 25]: > 500 µM
MIC [20, 26]: > 500 µM
MIC [20, 27]: > 500 µM
MIC ([21]; 72 h, read-out: MIC TI 72h): > 500 µM
MIC ([21]; 120 h, read-out: MIC TI 120h): > 500 µM
MIC [22, 28]: > 500 µM
MIC [22, 29]: > 500 µM
MIC KP 24h [23]: > 500 µmol/L
MIC KP 48h [23]: > 500 µmol/L

O=C(Cc1ccc(Cl)cc1)Nc1cccc(Cl)n1 [Compound 21]
MIC ([2]; Calculated from MIC (μg/mL)): 27.8 µM
MIC [2]: 7.81 µg/mL
SI (selectivity index) [2]: 2.9
MIC [3]: 15.6 µg/mL (≈ 55.6 µM)
MIC [4]: 31.2 µg/mL (≈ 111 µM)
MIC [5]: 6.25 µg/mL (≈ 22.2 µM)
MIC M. kansasii [6]: additional activity
MIC [6]: 25 µg/mL (≈ 88.9 µM)
MIC M. avium [7]: additional activity
MIC [7]: 6.25 µg/mL (≈ 22.2 µM)
IC50 (HepG2 cell line): 81.5 µM
MIC ([8]; 24 h, read-out: MIC SA 24h): 250 µM (≈ 70.3 µg/mL)
MIC ([8]; 48 h, read-out: MIC SA 48h): > 500 µM
Antibacterial activity on SA ([8]; Table 2): 250 μM on SA, 250 μM on MRSA
MIC ([9]; 24 h, read-out: MIC MRSA 24h): 250 µM (≈ 70.3 µg/mL)
MIC ([9]; 48 h, read-out: MIC MRSA 48h): 500 µM (≈ 141 µg/mL)
Antibacterial activity on MRSA ([9]; Table 2): 250 μM on SA, 250 μM on MRSA
MIC ([10]; 24 h, read-out: MIC SE 24h): > 500 µM
MIC ([10]; 48 h, read-out: MIC SE 48h): > 500 µM
MIC ([11]; 24 h, read-out: MIC EF 24h): > 500 µM
MIC ([11]; 48 h, read-out: MIC EF 48h): > 500 µM
MIC ([12]; 24 h, read-out: MIC EC 24h): > 500 µM
MIC ([12]; 48 h, read-out: MIC EC 48h): > 500 µM
MIC ([13]; 24 h, read-out: MIC ACI 24h): > 500 µM
MIC ([13]; 48 h, read-out: MIC ACI 48h): > 500 µM
MIC ([14]; 24 h, read-out: MIC PA 24h): > 500 µM
MIC ([14]; 48 h, read-out: MIC PA 48h): > 500 µM
MIC ([15]; 24 h, read-out: MIC CA 24h): > 500 µM
MIC ([15]; 48 h, read-out: MIC CA 48h): > 500 µM
MIC ([16]; 24 h, read-out: MIC CK 24h): > 500 µM
MIC ([16]; 48 h, read-out: MIC CK 48h): > 500 µM
MIC ([17]; 24 h, read-out: MIC CP 24h): > 500 µM
MIC ([17]; 48 h, read-out: MIC CP 48h): > 500 µM
MIC ([18]; 24 h, read-out: MIC CT 24h): > 500 µM
MIC ([18]; 48 h, read-out: MIC CT 48h): > 500 µM
MIC [19, 24]: > 500 µM
MIC [19, 25]: > 500 µM
MIC [20, 26]: > 500 µM
MIC [20, 27]: > 500 µM
Antifungal activity on TI ([21]; Table 2): 62.5 μM on TI
MIC ([21]; 72 h, read-out: MIC TI 72h): 62.5 µM (≈ 17.6 µg/mL)
MIC ([21]; 120 h, read-out: MIC TI 120h): 125 µM (≈ 35.1 µg/mL)
MIC [22, 28]: > 500 µM
MIC [22, 29]: > 500 µM
MIC KP 24h [23]: > 500 µmol/L
MIC KP 48h [23]: > 500 µmol/L

NNC(=O)c1ccncc1 [INH, isoniazid, reference compound]
MIC ([2]; Calculated from MIC (μg/mL)): 0.9 to 1.8 µM
MIC [2]: 0.125 to 0.25 µg/mL
MIC [3]: 7.81 to 15.6 µg/mL (≈ 56.9 to 114 µM)
MIC [4]: 3.91 to 7.81 µg/mL (≈ 28.5 to 56.9 µM)
MIC Mtb H37Rv [5]: 0.1 to 0.2 µg/mL
MIC M. kansasii [6]: 3.13 to 12.5 µg/mL
MIC M. avium [7]: 6.25 to 12.5 µg/mL
